The text below walks through data of US20240252428A1, “METHODS OF PROVIDING BIRTH CONTROL” (THE POPULATION COUNCIL, INC., priority 2021, published 2024).

A value given as a limit tells only on which side of the number the result lay.

Series [1] concerns the target T1, progesterone receptor (Homo sapiens, UniProt P06401).
T1 sequence (P06401 1-933): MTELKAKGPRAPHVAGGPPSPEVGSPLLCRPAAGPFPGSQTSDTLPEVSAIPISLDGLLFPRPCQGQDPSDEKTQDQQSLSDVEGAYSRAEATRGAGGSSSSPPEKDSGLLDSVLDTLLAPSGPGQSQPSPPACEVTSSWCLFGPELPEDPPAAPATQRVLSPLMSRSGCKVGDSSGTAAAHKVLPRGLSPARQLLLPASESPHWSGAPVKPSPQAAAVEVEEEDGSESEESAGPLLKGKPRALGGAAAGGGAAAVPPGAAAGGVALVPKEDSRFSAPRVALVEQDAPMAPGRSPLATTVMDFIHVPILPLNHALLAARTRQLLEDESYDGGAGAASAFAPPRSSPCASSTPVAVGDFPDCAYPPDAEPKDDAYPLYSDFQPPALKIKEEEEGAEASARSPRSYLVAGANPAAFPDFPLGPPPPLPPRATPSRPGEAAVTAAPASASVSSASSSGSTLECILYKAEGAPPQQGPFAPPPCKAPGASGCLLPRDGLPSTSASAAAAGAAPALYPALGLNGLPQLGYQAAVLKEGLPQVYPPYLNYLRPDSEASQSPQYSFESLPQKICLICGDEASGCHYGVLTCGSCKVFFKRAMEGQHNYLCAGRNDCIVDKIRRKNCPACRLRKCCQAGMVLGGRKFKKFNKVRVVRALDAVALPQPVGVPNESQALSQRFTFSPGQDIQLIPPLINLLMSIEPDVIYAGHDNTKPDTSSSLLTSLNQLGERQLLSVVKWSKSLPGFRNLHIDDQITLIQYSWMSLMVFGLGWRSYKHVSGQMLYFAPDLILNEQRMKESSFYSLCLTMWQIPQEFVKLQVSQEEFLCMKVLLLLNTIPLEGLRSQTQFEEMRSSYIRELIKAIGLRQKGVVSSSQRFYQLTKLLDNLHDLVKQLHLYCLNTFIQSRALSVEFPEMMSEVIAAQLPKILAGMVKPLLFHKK
As to the kind of experiment: Progesterone receptor activity of SA metabolites. Type of series: biochemical. From the text: The hydroxylated EE metabolites have weak estrogenic activity.

Series [2] in a line: PK sub-study of the vaginal system over 13 product-use cycles (21 days in/7 days out), serum SA and EE. It is filed as in vivo, human. The arrangement: AUC0-21 day / AUC0-1 day: concentration or dose not given beside the values. How it is done:
The pharmacokinetics (PK) of the vaginal system described herein were determined during studies related to the prior approved use (i.e., 13 product-use cycles comprising a 21-day “product-in” period and a 7-day “product-out” period). Studies were conducted in 39 women who used the system for up to the 13 product-use cycles. […] Over subsequent product-use cycles, the peak serum concentrations of SA and EE declined.
During a phase 3 trial of the vaginal ring system, three centers participated in a PK sub-study. The PK sub-study was an open-label, multicenter, non-randomized phase 1 study evaluating the PK and pharmacodynamics (PD) of a self-administered vaginal ring system. Enrolled women were healthy, aged 18-38 years, who had regular cycles of 28±7 days and were sexually active with no intention of becoming pregnant for the following 13 months. Exclusion criteria were those typical for oral contraceptive assessments. Women were not permitted to use hormonal contraceptives (other than the study vaginal ring) or vaginal lubricants that could have interfered with steroid absorption during the study.
Women were instructed to use the SA/EE vaginal ring system for 13 consecutive cycles following a 21-days-in and 7-days-out regimen, with the initial ring insertion (day 1 of cycle 1) under investigator supervision at the study clinic. […] In the PK substudy, blood samples from each woman were collected 8 times (see below) per assessed cycles (1, 3, and 13) as per the protocol.
For serum SA and EE measurements, blood samples were collected on treatment days 1-5, 8, 15, and 22 during cycles 1, 3, and 13 with the serum stored at −20° C. Steroid concentrations were determined at each time point using a validated gas chromatography/tandem mass spectrometry (GC-MS/MS; Taylor Technology, Princeton, NJ); the lower limits of quantification (LLOQ) were 50 pg/mL (135 pmol/L) for SA and 10 pg/mL (33.74 pmol/L) for EE. The linear calibration range was 50.0 to 5000 pg/mL for SA and 10.0 to 1000 pg/mL for EE. The inter-assay coefficient of variation for SA was 7-15.5% and for EE 8-13% for low, medium, and high-quality control samples used during assays. The intra-assay coefficient of variation for both SA and EE was lower than 12%.

Series [3] is described as follows: PK study in females with BMI <25 vs BMI >25. Type of series: in vivo, human. Particulars: 18 females BMI <25 vs 21 females BMI >25. From the text: The vaginal system described herein has not been adequately evaluated in females with a body mass index of >29 kg/m2. […] Higher body weight associates with lower systemic exposure of SA and EE.
A short description of series [4]: Drug-drug interaction study with vaginal miconazole formulations. It is filed as in vivo. Particulars: for overall increase in exposure: with 1 day or 3-day oil-based miconazole suppository; for change in exposure from the vaginal system: with water-based vaginal miconazole cream. From the text:
However, the use of either the 1 day or the 3-day oil-based miconazole suppository was associated with an overall increase in exposure up to 67% for EE and 32% for SA. Considering the potential long-term effect on vaginal system performance, concurrent use of oil-based vaginal suppositories should not occur with the system's use. If there is a need to treat a vaginal condition, water-based vaginal cream or oral therapy may be used concurrently with the vaginal system.

Series [5] is described as follows: Recoverable SA and EE after storage. Type of series: physicochemical. The following applies: for amount recoverable from the vaginal system: over 24 months of storage at 25° C. and 60% relative humidity. On the procedure: This was quite surprising as a similar trend was not observed during long-term stability studies on the cores before assembly.
• Diluent: methanol/water 58/42 v/v • Dried NES and EE before weighing (100-105° C. 3 h) • EE stock solution: Dissolved 25.0 mg of EE and diluted to 250.0 mL with methanol (duplicates, EE1 and EE2) • NES stock solution: Dissolved 50.0 mg of NES and diluted to 100.0 mL with methanol (duplicates, NES1 and NES2) • Standard solutions: • S1: Diluted 5.0 mL of NES1 and 4.0 mL of EE1 to 50.0 mL with diluent • S2: Diluted 6.0 mL of NES2 and 5.0 mL of EE2 to 50.0 mL with diluent • S3: Diluted 8.0 mL of NES1 and 7.0 mL of EE1 to 50.0 mL with diluent • S4: Diluted 10.0 mL of NES2 and 9.0 mL of EE2 to 50.0 mL with diluent • System suitability solution (SST solution): Diluted 5.0 mL acetone+7.0 mL NES1+6.0 mL EE1 to 50.0 mL with diluent.
Rings were cut into 8 pieces and each piece was divided lengthwise then transferred to an Erlenmeyer flask. • 140 mL of acetone (weight of flask was noted before and after acetone addition) was added to the flask.
• analytical column: Discovery C8, 5 μm, 150×4.6 mm (Supelco) • pre-column: Supelguard, Discovery C8, 5 μm, 20×4.0 mm (Supelco) • stationary phase: endcapped C8 (5 μm particle size) USP L7 • temperature: 30° ° C. Mobile phase: methanol/water 58/42, isocratic elution Flow rate: 1.2 mL/min Detection (assay): NES UV 240 nm, EE UV 280 nm Detection (identity): PDA (photodiode array detector) scanning 220-310 nm, NES 240 nm, EE 280 nm
Run time: 15 min System suitability: SST solution • Area precision (n=5): RSD (%)≤2.0 • Peak tailing (T): 0.8≤T≤1.5 • Blank injections: No interfering peaks Retention times: EE approximately 7 min and NES approximately 9 min Results Assay: Report the average value of three different rings and express as mg EE/ring and mg NES/ring. Results Content uniformity: Calculate the average value of ten different rings. Report with or without remarks according the guidelines outlined in the US Pharmacopeial Convention, incorporated herein by reference, and in particular USP <905>. […]

The mark [6] stands for this setting: EE in serum, cycle 1, mean (SD).
[7] abbreviates: EE in serum, cycle 3, mean (SD).
Where [8] appears, read: EE in serum, cycle 13, mean (SD).

In the case of `C=C1CC2C3CCC4CC(=O)CCC4C3CCC2(C)C1(OC(C)=O)C(C)=O` (stereo not drawn) [5α-dihydro], in series [1], the “EC50 to progesterone receptor, fold higher than that of SA” value is listed as 10 fold.
What is called Cmax is the highest concentration seen after dosing. What is called Tmax is the time at which the peak concentration occurs. Consider `C#C[C@]1(O)CC[C@H]2[C@@H]3CCc4cc(O)ccc4[C@H]3CC[C@@]21C` [EE, 19-nor-17α-pregna-1,3,5(10)-trien-20-yne-3,17-diol], for which the Cavg in series [2] (EE in serum, cycle 1, mean) came to 0.148 nM; in series [2] (EE in serum, cycle 3, mean), 0.098 nM; in series [2] (EE in serum, cycle 13, mean), 0.064 nM. Besides, the Cmax came to 0.435 nM in series [2] (EE in serum, cycle 1, mean); 0.202 nM in series [2] (female, human, serum, other: vaginal, EE in serum, cycle 3, mean); 0.131 nM in series [2] (female, human, serum, other: vaginal, EE in serum, cycle 13, mean). Besides, the AUC0-1 day is 7,077 (2,359) pmol*hr/L in series [2] (setting [6]), 3,033 (1,348) pmol*hr/L in series [2] (setting [7]) and 2,359 (1,011) pmol*hr/L in series [2] (setting [8]). Further, the AUC0-21 day is 74,814 (33,026) pmol*hr/L in series [2] (setting [6]), 49,539 (15,839) pmol*hr/L in series [2] (setting [7]) and 32,352 (13,817) pmol*hr/L in series [2] (setting [8]). The Tmax in series [2] (female, human, serum, vaginal administration, product-use cycles 1, 3 and 13, read-out: median Tmax) was ~2 h. In series [3], the “decrease in systemic exposure (AUC 0-21 day) between the two BMI groups” value was ≤ 33%. In addition, in series [4], the “overall increase in exposure” value is given as “up to 67%”. The “change in exposure from the vaginal system” value in series [4] is on record as “no change”. Further, in series [5] (cores before assembly, after extended storage), the “amount recoverable from the core by extraction” value is listed as “full amount of EE was found to be recoverable”. For the same compound, the “amount recoverable from the vaginal system” value in series [5] was “decreased in a time-dependent manner”.
`C=C1C[C@H]2[C@@H]3CCC4=CC(=O)CC[C@@H]4[C@H]3CC[C@]2(C)[C@@]1(OC(C)=O)C(C)=O` [SA, 16-methylene-17α-acetoxy-19-nor-pregn-4-ene-3,20-dione]: the AUC0-21 day is 259,740 pmol*hr/L in series [2] (SA in serum, cycle 1, mean); 480,330 pmol*hr/L in series [2] (SA in serum, cycle 3, mean); 127,440 pmol*hr/L in series [2] (SA in serum, cycle 13, mean). Further, the Cavg in series [2] (SA in serum, cycle 1, mean) was 0.516 nM; in series [2] (SA in serum, cycle 3, mean) it was 0.3537 nM; in series [2] (SA in serum, cycle 13, mean) it was 0.254 nM. Moreover, the Cmax in series [2] (SA in serum, cycle 1, mean) worked out at 3.1 nM; in series [2] (SA in serum, cycle 3, mean), 0.98 nM; in series [2] (SA in serum, cycle 13, mean), 0.794 nM. The AUC0-1 day was 40,500 (8,640) pmol*hr/L in series [2] (SA in serum, cycle 1, mean (SD)); 36,450 (4,320) pmol*hr/L in series [2] (SA in serum, cycle 3, mean (SD)); 10,530 (3,780) pmol*hr/L in series [2] (SA in serum, cycle 13, mean (SD)). Moreover, in series [3], the “decrease in systemic exposure (AUC 0-21 day) between the two BMI groups” value is given as “up to 16%”. In series [4], the “overall increase in exposure” value is ≤ 32%. Also, the “change in exposure from the vaginal system” value in series [4] is listed as “no change”. Further, the “amount recoverable from the vaginal system” value in series [5] is given as “remained essentially constant”.
